Reference: patent publication US6359001B1, “Use of α-methyl-p-tyrosine to inhibit melanin production in iris melanocytes” (Pharmacia AB, priority 1997, dated 2002)
Read-outs that look alike come from different tables or passages of the source. Marks after values point to notes of the source that are not given here.

Experiments:
monkey iris = conditions: cited from earlier work
tyrosinase = molecular target: T1, tyrosinase (Homo sapiens, UniProt P14679); experiment: Tyrosinase activity in uveal melanocyte cell strains (adapted Pomerantz method, 3H2O release); assay type: cell-based; conditions: for Tyrosinase activity: growth stage
T1 construct: endogenous in cells; host or cells: primary uveal (iris) melanocyte cell strains from donor eyes (brown and brown-blue irises)
T1 sequence (P14679 19-529): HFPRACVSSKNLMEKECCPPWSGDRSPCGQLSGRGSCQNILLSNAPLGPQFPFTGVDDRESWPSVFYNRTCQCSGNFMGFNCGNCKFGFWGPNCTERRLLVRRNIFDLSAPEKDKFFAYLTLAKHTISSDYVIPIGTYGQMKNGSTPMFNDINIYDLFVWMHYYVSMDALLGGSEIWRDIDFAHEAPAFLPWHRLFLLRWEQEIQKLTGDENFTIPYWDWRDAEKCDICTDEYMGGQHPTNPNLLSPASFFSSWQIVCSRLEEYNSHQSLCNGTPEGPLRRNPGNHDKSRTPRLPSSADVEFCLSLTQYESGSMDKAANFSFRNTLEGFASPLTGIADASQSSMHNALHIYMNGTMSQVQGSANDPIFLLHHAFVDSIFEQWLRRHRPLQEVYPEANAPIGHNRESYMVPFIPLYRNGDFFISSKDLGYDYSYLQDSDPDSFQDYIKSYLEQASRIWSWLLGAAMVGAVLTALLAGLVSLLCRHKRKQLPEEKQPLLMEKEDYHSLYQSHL
Procedure: (§1) Uveal melanocytes were isolated and cultured from adult donor eyes. The iris was excised and placed in a dish with the posterior surface upward. The iris pigment epithelium was separated from the stroma after immersion in 0.25% trypsin solution (Gibco, USA) at 37° C. for 2 hour. The remaining iris stroma was placed in a 0.25% trypsin solution at 4° C. for 18 hours, followed by incubation at 37° C. for 1 hour. The isolated cells were collected. The trypsin solution was replaced by collagenase solution (400 U/ml, in F-12 medium, Sigma, USA) and incubated at 37° C. The collagenase solution was replaced, and the cells were collected, centrifuged, resuspended, and plated each hour for 3 hours.
(§2) The isolated uveal melanocytes were cultured in Falcon culture dishes (Becton Dickinson, USA) with FIC medium, which consisted of F-12 medium supplemented with 10% fetal bovine serum, 2 mM glutamine (all from Gibco), 10 ng/ml cholera toxin, 0.1 mM isobutylmethylxanthine, 50 μg/ml gentamicin (all from Sigma), and 20 ng/ml basic fibroblast growth factor (Promega, USA). The culture dishes were incubated in a humidified 5% CO2 atmosphere. The medium was changed three times a week. Geneticin (Sigma, USA); a cytotoxic agent, was added (100 μg/ml) for 3 to 7 days when necessary.
(§3) The 8 cell strains of uveal melanocytes used in the present study were isolated from donors with different iris color (brown and brown-blue).
Tyrosinase activity was evaluated in nine cell strains using an adaptation of the Pomerantz method, which is based on the measurement of ^3H2O released by the enzymatic hydroxylation of tyrosine.

[1] = clinical concentrations for the treatment of pheocromocytoma; cited from earlier work
uveal melanocytes [2] = experiment: Melanin production of cultured uveal (iris) melanocytes; assay type: cell-based; conditions: for Melanin production: growth stage; for Melanin production by iris melanocytes (summary in words): in vitro experiments
Procedure: as §1, §2, §3
(§4) Cultured uveal melanocytes were detached by trypsin-EDTA solution and counted in a hemocytometer, the cell suspensions were centrifuged, and the pellet was dissolved in 1 N NaOH. Melanin concentration was determined by measurement of optical density at 475 nm and compared with a standard curve obtained using synthetic melanin (Sigma). Melanin content was expressed as ng/cell.
Melanin production was calculated by determining the melanin content and the cell counts at the beginning and the end of each generation by the following formula: […]
where C0 and Ct represent the melanin content per cell at times 0 and time t, respectively; P is the population increase during time t, D is the doubling time of the uveal melanocytes; and Cp is melanin production per cell per day during time t.

uveal melanocytes [3] = experiment: Melanin content of cultured uveal (iris) melanocytes; assay type: cell-based; conditions: for Melanin content: growth stage
Procedure: as §1, §2, §3, §4

iris = conditions: cited from earlier work
[4] = 3 cell strains (brown-blue), α-methyl-p-tyrosine 10^−5, no latanoprost
[5] = 3 cell strains (brown-blue), α-methyl-p-tyrosine 10^−5 with latanoprost 10^−5 M
[6] = 3 cell strains (brown-blue), α-methyl-p-tyrosine 10^−5 with latanoprost 10^−6 M
[7] = 3 cell strains (brown-blue), α-methyl-p-tyrosine 10^−5 with latanoprost 10^−7 M
[8] = 3 cell strains (brown-blue), α-methyl-p-tyrosine 10^−5 with latanoprost 10^−8 M
[9] = 5 cell strains (brown), α-methyl-p-tyrosine 10^−5, no latanoprost
[10] = 5 cell strains (brown), α-methyl-p-tyrosine 10^−5 with latanoprost 10^−5 M
[11] = 5 cell strains (brown), α-methyl-p-tyrosine 10^−5 with latanoprost 10^−6 M
[12] = 5 cell strains (brown), α-methyl-p-tyrosine 10^−5 with latanoprost 10^−7 M
[13] = 5 cell strains (brown), α-methyl-p-tyrosine 10^−5 with latanoprost 10^−8 M
[14] = α-methyl-p-tyrosine 10^−5 M added with latanoprost 10^−7 to 10^−5 M, brown and brown-blue irises
[15] = 3 cell strains (brown-blue), latanoprost 10^−5 M, no α-methyl-p-tyrosine
[16] = 3 cell strains (brown-blue), latanoprost 10^−6 M, no α-methyl-p-tyrosine
[17] = 3 cell strains (brown-blue), latanoprost 10^−7 M, no α-methyl-p-tyrosine
[18] = 3 cell strains (brown-blue), latanoprost 10^−8 M, no α-methyl-p-tyrosine
[19] = 5 cell strains (brown), latanoprost 10^−5 M, no α-methyl-p-tyrosine
[20] = 5 cell strains (brown), latanoprost 10^−6 M, no α-methyl-p-tyrosine
[21] = 5 cell strains (brown), latanoprost 10^−7 M, no α-methyl-p-tyrosine
[22] = 5 cell strains (brown), latanoprost 10^−8 M, no α-methyl-p-tyrosine
[23] = brown and brown-blue iris strains, latanoprost at the highest molar concentrations

Structure (SMILES): CCCCC[C@H](O)/C=C/[C@H]1[C@H](O)CC(=O)[C@@H]1C/C=C\CCCC(=O)O [PGE2]
- Pigmentation of the monkey iris (monkey iris; chronic treatment): increased pigmentation

Structure (SMILES): CC(N)(Cc1ccc(O)cc1)C(=O)O (stereo not drawn) [α-methyl-p-tyrosine, α-methyl-para-tyrosine]
- Tyrosinase activity (tyrosinase; [4]): 32.4 units
- Tyrosinase activity (tyrosinase; [5]): 39.5 units
- Tyrosinase activity (tyrosinase; [6]): 34.6 units
- Tyrosinase activity (tyrosinase; [7]): 31.7 units
- Tyrosinase activity (tyrosinase; [8]): 34.6 units
- Tyrosinase activity (tyrosinase; [9]): 33.6 units
- Tyrosinase activity (tyrosinase; [10]): 31.5 units
- Tyrosinase activity (tyrosinase; [11]): 34.6 units
- Tyrosinase activity (tyrosinase; [12]): 38.7 units
- Tyrosinase activity (tyrosinase; [13]): 35.5 units
- Tyrosinase activity (in words) (tyrosinase; [14]): significant decrease
- Catecholamine concentration in the body [1]: markedly reduced
- Melanin production (uveal melanocytes [2]; [4]): 0.0023 ng/cell/day
- Melanin production (uveal melanocytes [2]; [5]): 0.0031 ng/cell/day
- Melanin production (uveal melanocytes [2]; [6]): 0.0029 ng/cell/day
- Melanin production (uveal melanocytes [2]; [7]): 0.0029 ng/cell/day
- Melanin production (uveal melanocytes [2]; [8]): 0.0025 ng/cell/day
- Melanin production (uveal melanocytes [2]; [9]): 0.0033 ng/cell/day
- Melanin production (uveal melanocytes [2]; [10]): 0.0031 ng/cell/day
- Melanin production (uveal melanocytes [2]; [11]): 0.0029 ng/cell/day
- Melanin production (uveal melanocytes [2]; [12]): 0.0039 ng/cell/day
- Melanin production (uveal melanocytes [2]; [13]): 0.0035 ng/cell/day
- Melanin production by iris melanocytes (summary in words) (uveal melanocytes [2]): inhibited
- Melanin production by iris melanocytes (summary in words) (uveal melanocytes [2]; listed as α-methyl-para-tyrosine): significantly reduced
- Melanin production (in words) (uveal melanocytes [2]; [14]): significant decrease
- Melanin content (uveal melanocytes [3]; [4]): 0.0122 ng/cell
- Melanin content (uveal melanocytes [3]; [5]): 0.0128 ng/cell
- Melanin content (uveal melanocytes [3]; [6]): 0.0125 ng/cell
- Melanin content (uveal melanocytes [3]; [7]): 0.0123 ng/cell
- Melanin content (uveal melanocytes [3]; [8]): 0.0119 ng/cell
- Melanin content (uveal melanocytes [3]; [9]): 0.0133 ng/cell
- Melanin content (uveal melanocytes [3]; [10]): 0.0131 ng/cell
- Melanin content (uveal melanocytes [3]; [11]): 0.0137 ng/cell
- Melanin content (uveal melanocytes [3]; [12]): 0.0136 ng/cell
- Melanin content (uveal melanocytes [3]; [13]): 0.0135 ng/cell
- Melanin content (in words) (uveal melanocytes [3]; [14]): significant decrease

Structure (SMILES): CC(C)OC(=O)CCC/C=C\C[C@@H]1[C@@H](CC[C@@H](O)CCc2ccccc2)[C@H](O)C[C@@H]1O [latanoprost, 13,14-dihydro-17-phenyl-18,19,20-tri-nor-PGF2αisopropyl ester]
- Iris colour change in patients (iris; chronic therapy, sometimes noted): darkening of the iris
- Tyrosinase activity (tyrosinase; [15]): 62.7* units
- Tyrosinase activity (tyrosinase; [16]): 52.5* units
- Tyrosinase activity (tyrosinase; [17]): 48.1* units
- Tyrosinase activity (tyrosinase; [18]): 33.7 units
- Tyrosinase activity (tyrosinase; [19]): 63.1* units
- Tyrosinase activity (tyrosinase; [20]): 42.5 units
- Tyrosinase activity (tyrosinase; [21]): 38.3 units
- Tyrosinase activity (tyrosinase; [22]): 36.7 units
- Tyrosinase activity (in words) (tyrosinase; [23]): increased
- Melanin production (uveal melanocytes [2]; [15]): 0.0067* ng/cell/day
- Melanin production (uveal melanocytes [2]; [16]): 0.0056* ng/cell/day
- Melanin production (uveal melanocytes [2]; [17]): 0.0046* ng/cell/day
- Melanin production (uveal melanocytes [2]; [18]): 0.0038 ng/cell/day
- Melanin production (uveal melanocytes [2]; [19]): 0.0047* ng/cell/day
- Melanin production (uveal melanocytes [2]; [20]): 0.0036 ng/cell/day
- Melanin production (uveal melanocytes [2]; [21]): 0.0046* ng/cell/day
- Melanin production (uveal melanocytes [2]; [22]): 0.0038 ng/cell/day
- Melanin production (in words) (uveal melanocytes [2]; [23]): increased
- Pigmentation of the monkey iris (monkey iris; chronic treatment): increased pigmentation
- Melanin content (uveal melanocytes [3]; [15]): 0.0151* ng/cell
- Melanin content (uveal melanocytes [3]; [16]): 0.0149* ng/cell
- Melanin content (uveal melanocytes [3]; [17]): 0.0142* ng/cell
- Melanin content (uveal melanocytes [3]; [18]): 0.0127 ng/cell
- Melanin content (uveal melanocytes [3]; [19]): 0.0149* ng/cell
- Melanin content (uveal melanocytes [3]; [20]): 0.0161* ng/cell
- Melanin content (uveal melanocytes [3]; [21]): 0.0151 ng/cell
- Melanin content (uveal melanocytes [3]; [22]): 0.0141 ng/cell
- Melanin content (in words) (uveal melanocytes [3]; [23]): increased

Structure (SMILES): CCCCCCCC(=O)CC[C@@H]1[C@@H](C/C=C\CCCC(=O)OC(C)C)[C@@H](O)C[C@H]1O [isopropyl unoprostone, 13,14-dihydro-15-keto-20-ethyl-PGF2α isopropylester]
- Iris colour change in patients (iris; human, in vivo): darkening of the iris

Structure (SMILES): CCCCC[C@H](O)/C=C/[C@@H]1[C@@H](C/C=C\CCCC(=O)O)[C@@H](O)C[C@H]1O [PGF2α]
- Pigmentation of the monkey iris (monkey iris; monkey, in vivo): increased pigmentation
